In patent US9078916B2, “Method for producing and using a copolymer of sodium carboxymethyl cellulose and gossypol” (Limited Liability Company “Nearmedic Plus”, priority 2010, dated 2015):
Entries after “also recorded” stand apart in the source; their conditions may differ.

Tested on: 6-year children with autistic spectrum disorders and severe cognitive impairments
Assay: Complex therapy of 6-year children, copolymer tablets added to basic therapy with neuroleptics
Assay type: in vivo
From the text: The method can be used for the treatment of autistic disorders and cognitive impairments in 6-year children. A treatment regimen is selected by a specialist depending on the severity of a disease, condition and age of a patient. In particular, the treatment can be performed according to the following regimen: administration of a medicament 3 times per day for 5 days followed by the 5-day break. This ten-day cycle is repeated […]. The total duration of the treatment is 30 days. A dose of the active agent is 36 mg/day. Then, the course should be repeated.
The efficacy and safety of the use of sodium carboxymethyl cellulose polymer with a degree of substitution of 0.35 to 0.80 and gossypol, of formula (I) in a complex therapy of 6-year children with autistic spectrum disorders and severe cognitive impairments were studied. The children were administered with a medicament comprising a copolymer of sodium carboxymethyl cellulose with a degree of substitution of 0.35 to 0.80 and gossypol, of formula (I) (tablets containing 12 mg of the active agent, which composition is shown in Table 2) on the background of basic therapy with neuroleptics such as neuleptil, haloperidol, aminazine, teraligen, triphtazine, eglonil, azaleptin chlorprothixene. Antidepressants (e.g., anafranil) and anticonvulsants (finlepsin, trileptal, or topamax) were used in some cases. Neuroleptics, antidepressants and anticonvulsants were used in optimal therapeutic doses. […] When the therapy was supplemented with a medicament comprising a copolymer of sodium carboxymethyl cellulose with a degree of substitution of 0.35 to 0.80 and gossypol, of formula (I), the manifestations of encopresis and enuresis ceased, catatonic disorders decreased, cognitive functions improved, and speech appeared. In patients with mild to moderate autism, restricted repetitive behavior disappeared.

[1] = patients with very severe autism, therapy supplemented with the medicament

In the case of “sodium salt of copolymer of carboxymethyl cellulose with a degree of substitution of 0.35 to 0.80 and gossypol”, the “resistance to therapy with neuroleptics / psychotropic drugs” value (added to basic therapy, especially patients with very severe autism, 12 mg tablets) is reported as “decreased; also recorded: elimination”, the “negative side effects on a patient” value (in vivo) is reported as “does not have negative side effects” and the tolerability (in vivo) is reported as “well tolerable”. The “toxic and allergic reactions” value (in vivo) was “not reported”, the restricted repetitive behavior (patients with mild to moderate autism) was “disappeared” and the catatonic disorders [1] was “decreased”. For the same substance, the “manifestations of encopresis and enuresis” value [1] was “ceased”, the speech [1] was “appeared” and the cognitive functions (therapy supplemented with the medicament) was “improved; also recorded: significant improvement”. For the same substance, the “mental condition of the patients” value (when administering the medicament) was “improved”.
